According to patent publication US4778796A, “ω-(3-pyridyl)alkenamide derivatives and anti-allergenic pharmaceutical compositions containing same” (Dainippon Pharmaceutical Co., Ltd., priority 1985, dated 1988):
Read-outs that look alike come from different tables or passages of the source.

Columns and labels:
[1] = test system: passive cutaneous anaphylaxis (PCA); test: Inhibitory effect on passive cutaneous anaphylaxis (PCA) in rats; format: in vivo, rat (male Wistar); details: Rattus norvegicus; 20 mg/kg, oral, 1 hour before antigen challenge; read-out: Inhibition (PCA in rats)
Method: (1) Inhibitory effect on passive cutaneous anaphylaxis (PCA) in rats:
This test was carried out by the method of Perper et al. [cf.
Male Wistar rats (130-180 g) were injected with 0.1 ml of a dilute solution of mouse antiserum to egg albumin in two sites of the shaved ventral skin. Forty-eight hours later each rat was challenged by an intravenous injection of 2 mg of the antigen together with 1 ml of a 0.5% Evan's blue saline solution. The rats were sacrificed 30 minutes after the challenge. The area of the blueing lesions was measured on the undersurface of the skin. The average value of the two lesions of each rat was regarded as the response of the rat. Test compounds in a dose of 20 mg/kg, dissolved or suspended in a 0.5% aqueous tragacanth solution, were administered orally 1 hour before the antigen challenge. The inhibitory rate was determined by comparing the responses of the rats given each test compound with those of the rats given only a 0.5% aqueous tragacanth solution. Each group of 3 rats was used for each test compound. The mouse antiserum to egg albumin was produced by the method of Levine and Vaz [cf. Int. Arch. Allergy Appl.

[2] = test system: contact hypersensitivity to oxazolone; test: Inhibitory effect on contact hypersensitivity to oxazolone in mice; format: in vivo, mouse (male ICR); details: topical, 0.3 mg/ear; 24 hours after challenge
Method: (3) Inhibitory effect on contact hypersensitivity to oxazolone in mice:
This test was carried out by the method of Evans et al. [cf. Brit.
Male ICR mice (18-20 g) were used. The abdominal region of the mice was carefully clipped with an electric clipper, and 0.1 ml of a 0.5 w/v % oxazolone solution in absolute ethanol was gently rubbed into the clipped area. Five days after the sensitization 20 μl of a 0.5 w/v % oxazolone solution in acetone or chloroform, or the solution containing test compound was applied to both sides of the right ear. The left ear was not treated. Twenty-four hours after the challenge, the animals were sacrificed with diethyl ether. The circular parts (5.5 mm in diameter) of both ears were removed by punching and then weighed. The inhibitory rate was determined by comparing the ear swelling of the mice treated with oxazolone containing test compound with that of the mice treated with oxazolone. Each group of 8 mice was used for each dose of the test compound.

5-lipoxygenase = target: T1, 5-lipoxygenase (Cavia porcellus, UniProt A0A286X958); test: Inhibitory effect on 5-lipoxygenase activity in guinea pig leukocytes; format: biochemical, guinea pig (male Hartley); details: 10^-5 M; read-out: 5-Lipoxygenase inhibit. activity, Inhibition
T1 construct: The cytosol fraction of peritoneal exudate cells from male Hartley guinea pigs (400-700 g) was used as 5-lipoxygenase; from tissue; host or cells: cytosol fraction of peritoneal exudate cells (leukocytes) of male Hartley guinea pigs
T1 sequence (A0A286X958 1-674): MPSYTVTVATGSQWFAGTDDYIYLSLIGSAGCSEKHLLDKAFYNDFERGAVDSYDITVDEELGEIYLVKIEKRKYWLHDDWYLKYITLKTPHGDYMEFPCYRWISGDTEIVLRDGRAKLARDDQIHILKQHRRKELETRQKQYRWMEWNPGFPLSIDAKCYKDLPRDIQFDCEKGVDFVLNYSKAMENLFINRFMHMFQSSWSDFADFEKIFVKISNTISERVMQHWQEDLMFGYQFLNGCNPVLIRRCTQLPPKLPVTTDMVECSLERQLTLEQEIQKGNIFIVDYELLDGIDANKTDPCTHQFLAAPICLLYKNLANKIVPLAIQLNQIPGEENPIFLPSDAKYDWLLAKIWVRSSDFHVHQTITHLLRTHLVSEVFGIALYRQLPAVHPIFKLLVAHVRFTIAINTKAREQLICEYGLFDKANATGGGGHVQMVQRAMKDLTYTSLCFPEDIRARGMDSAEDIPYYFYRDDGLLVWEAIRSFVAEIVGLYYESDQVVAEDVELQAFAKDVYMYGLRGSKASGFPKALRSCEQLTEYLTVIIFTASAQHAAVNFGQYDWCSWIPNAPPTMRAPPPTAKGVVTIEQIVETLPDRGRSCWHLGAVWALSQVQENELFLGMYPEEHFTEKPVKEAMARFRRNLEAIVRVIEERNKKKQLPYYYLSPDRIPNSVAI
Method: (1) Inhibitory effect on 5-lipoxygenase activity in guinea pig leukocytes:
This test was carried out by the method of Miyamoto and Obata (cf. "Perspectives in Prostaglandin Research," ed. by Y. Shiokawa et al., Excepta Medica, Amsterdam-Oxford-Princeton, 1983, p78) with minor modifications.
The cytosol fraction of peritoneal exudate cells from male Hartley guinea pigs (400-700 g) was used as 5-lipoxygenase. The standard reaction mixture contained 50 mM potassium phosphate buffer, 1 mM CaCl2, 1 mM glutathione, 1 mM adenosine triphosphoric acid, 10 μM indomethacin and the enzyme. The mixture was incubated for 5 minutes at 30° C. after addition of [1-^14 C]arachidonic acid (0.02 μCi). The reaction was terminated by addition of 0.6 ml of the cold organic solvents (diethyl ether/methanol/0.2M citric acid=30/4/1). The organic layer (300 μl) was applied onto a precoated silica gel 60F254 glass plate (E. Merck, West Germany). Radioactivity on the plate was monitored by a radiochromatogram scanner (Packard, U.S.A.). 5-Lipoxygenase activity was calculated according to the following equation. [formula]
The effects of the test compounds were expressed in terms of percent inhibition.

experimental asthma = test: Inhibitory effect on experimental asthma in rats; format: in vivo, rat (male Wistar); details: Rattus norvegicus, po, 1 hour before antigen challenge
Method: (2) Inhibitory effect on experimental asthma in rats: This test was carried out by the method of Church and Miller [cf. Brit. […] Male Wistar rats (200-250 g) were sensitized by an intraperitoneal injection of 1 ml of a 0.01% egg albumin solution containing 1 mg of Al(OH)3. Two weeks later, the rats were anesthetized with 1.3 g/kg of urethane. The trachea and jugular vein were cannulated. Respiratory volume and velocity were measured by attaching one end of the tracheal cannula to respiratory volume meter connected to a carrier amplifier and an integrator. The rats were challenged by an intravenous injection of 4 mg/kg of egg ablumin 30 minutes after the anesthesia. Test compounds, dissolved or suspended in a 0.5% aqueous tragacanth solution, were administered orally 1 hour before the antigen challenge. Each group of 4 rats was used for each dose of the test compound. ED50 values were calculated from the best fit linear regression line of inhibitory rates of respiratory volume and velocity in each dose.

[3] = test system: histamine-induced contraction of isolated guinea pig trachea; test: Inhibitory effect on histamine-induced contraction of isolated guinea pig trachea; set-up: species or system guinea pig (male Hartley)
Method: (2) Inhibitory effect on histamine-induced contraction of isolated guinea pig trachea:
Male Hartley guinea pigs (400-700 g) were used. Zig-zag strips of guinea pig trachea were prepared by the method of Emmerson and Mackay [cf. J. Pharm. […] Dose-response curves for histamine were obtained before and 5 minutes after the addition of test compounds. Inhibitory rate was calculated from contraction heights in 3×10^-5 M of histamine without vs. with test compound.

SMILES | inhibition in vivo at 20 mg/kg [1] [%] | inhibition at 10 µM (5-lipoxygenase) [%] | also measured
Cc1ncccc1C=CC(=O)NCCCCN1CCN(C(c2ccccc2)c2ccccc2)CC1 [Example 53] | 68.8 | – | –
C/C(=C\c1cccnc1)C(=O)NCCCCN1CCN(C(c2ccccc2)c2ccccc2)CC1 [Example 76] | 78.9 | 43.5 | % Inhibition of ear swelling [2]: 65.8%
O=C(C=Cc1ccc(O)nc1)NCCCCN1CCN(C(c2ccccc2)c2ccccc2)CC1 [Example 44] | – | 45.5 | –
O=C(C=CC=Cc1cccnc1)NCCCN1CCN(C(c2ccccc2)c2ccccc2)CC1 [Example 84] | – | 60.3 | –
O=C(C=Cc1cccnc1)NCCCCN1CCN(C(c2ccccc2)c2ccccc2)CC1 [Example 1, N-[3-(3-pyridyl)acryloyl]-4-(4-diphenylmethyl-1-piperazinyl)butylamine] | 62.3 | – | ED50 (experimental asthma; respiratory velocity, read-out: ED50, respiratory velocity): 14.1 mg/kg; ED50 (experimental asthma; respiratory volume, read-out: ED50, respiratory volume): 13.3 mg/kg; IC50 ([3]; 3×10^-5 M histamine, isolated guinea pig trachea, read-out: Anti-hist. activity IC50): 960 nM; antihistamine activity (in words) ([3]; compared with ketotifen fumarate): potent antihistamine activity, though fairly inferior to that of ketotifen fumarate
COc1ccc(C=CC(=O)NCCCCN2CCN(C(c3ccccc3)c3ccccc3)CC2)cn1 [Example 25] | – | 66.2 | –
O=C(C=Cc1cncc(F)c1)NCCCCN1CCN(C(c2ccccc2)c2ccccc2)CC1 [Example 3, N-[3-(5-fluoro-3-pyridyl)acryloyl]-4-(4-diphenylmethyl-1-piperazinyl)butylamine] | 65 | – | –
O=C(C=Cc1cccnc1)NCCCCN1CCN(C(c2ccccc2)c2ccc(Br)cc2)CC1 (centres unmarked) [Example 64] | 55.8 | – | –
Cc1ccc(O)c(C=CC(=O)NCCCCN2CCN(C(c3ccccc3)c3ccccc3)CC2)n1 [Example 20] | – | 68.6 | –
C/C(=C\c1ccc(C)nc1)C(=O)NCCCCN1CCN(C(c2ccccc2)c2ccccc2)CC1 [Example 77] | 58.2 | – | –
O=C(C=Cc1ccc(Oc2cccc(F)c2)nc1)NCCCCN1CCN(C(c2ccccc2)c2ccccc2)CC1 [Example 29] | 60.7 | – | –
O=C(C=Cc1cccnc1)NCCCCN1CCN(C(c2ccc(F)cc2)c2ccc(F)cc2)CC1 [Example 62] | 56.1 | – | –
Cc1ccc(C=CC(=O)NCCCCCN2CCN(C(c3ccccc3)c3ccccc3)CC2)cn1 [Example 15] | – | 48.6 | –
O=C(C=Cc1cncc(Cl)c1)NCCCCN1CCN(C(c2ccccc2)c2ccccc2)CC1 [Example 47] | 66.4 | – | –
O=C(C=Cc1cccnc1)NCC=CCN1CCN(C(c2ccccc2)c2ccccc2)CC1 [Example 90, N-[3-(3-pyridyl)acryloyl]-4-(4-diphenylmethyl-1-piperazinyl)-2-butenylamin] | 83.3 | – | % Inhibition of ear swelling [2]: 46.3%
Cc1ccc(C(c2ccccc2)N2CCN(CCCCNC(=O)C=Cc3cccnc3)CC2)cc1 (centres unmarked) [Example 58] | 82.9 | – | –
Cc1ncc(C=CC(=O)NCCCCN2CCN(C(c3ccccc3)c3ccccc3)CC2)c(CO)c1O [Example 38, N-[3-(5-hydroxy-4-hydroxymethyl-6-methyl-3-pyridyl)acryloyl]-4-(4-diphenylmethyl-1-piperazinyl)butylamine] | – | 72.7 | % Inhibition of ear swelling [2]: 83.8%
O=C(C=Cc1ccc(Cl)nc1)NCCCCN1CCN(C(c2ccccc2)c2ccccc2)CC1 [Example 37] | – | 54.6 | –
Cc1ccc(C(c2ccccc2)N2CCN(CCCCNC(=O)C=Cc3ccc(C)nc3)CC2)cc1 (centres unmarked) [Example 48] | 73.9 | – | –
O=C(C=Cc1ccccn1)NCCCCN1CCN(C(c2ccccc2)c2ccccc2)CC1 [Example 11] | – | 59.6 | –
O=C(C=CC=Cc1cccnc1)NCCCCN1CCN(C(c2ccccc2)c2ccccc2)CC1 [Example 85] | 66.4 | – | –
Cc1ccc(C=CC=CC(=O)NCCCCN2CCN(C(c3ccccc3)c3ccccc3)CC2)cn1 [Example 87] | 68.8 | – | –
Cc1ccc(C=CC(=O)NCCCCN2CCN(C(c3ccccc3)c3ccccc3)CC2)c(C)n1 [Example 50] | 66.8 | 61.2 | –
O=C(C=Cc1cccnc1)NCCCCN1CCCN(C(c2ccccc2)c2ccccc2)CC1 [Example 6, N-[3-(3-pyridyl)acryloyl]-4-(4-diphenylmethyl-1-homopiperazinyl)butylamine1/4 hydrate] | 70 | – | –
CC/C(=C\c1cccnc1)C(=O)NCCCCN1CCN(C(c2ccccc2)c2ccccc2)CC1 [Example 5, N-[3-(3-pyridyl)-2-ethylacryloyl]-4-(4-diphenylmethyl-1-piperazinyl)butylamine sesquifumarate] | 67.8 | – | –
O=C(NCCCCN1CCN(C(c2ccccc2)c2ccccc2)CC1)/C(=C/c1cccnc1)c1ccccc1 [Example 79] | 58 | – | –
